Experimental data from ChEMBL document CHEMBL1201862, “PubChem BioAssay data set” (2004).
The source made the active and inactive calls. Rule as the data show it: actives have a measured IC50 and inactives only a lower limit.

These molecules were tested against Envelope glycoprotein gp160 (Human immunodeficiency virus 1, UniProt Q6QLK5) (assay: cell-free HIV fusion peptide-binding blockers – biochemical, uHTS, fluorescence dequenching, […] (AID 1986)).
Chain of Envelope glycoprotein gp160 (Q6QLK5 whole entry, the tested form may be a part): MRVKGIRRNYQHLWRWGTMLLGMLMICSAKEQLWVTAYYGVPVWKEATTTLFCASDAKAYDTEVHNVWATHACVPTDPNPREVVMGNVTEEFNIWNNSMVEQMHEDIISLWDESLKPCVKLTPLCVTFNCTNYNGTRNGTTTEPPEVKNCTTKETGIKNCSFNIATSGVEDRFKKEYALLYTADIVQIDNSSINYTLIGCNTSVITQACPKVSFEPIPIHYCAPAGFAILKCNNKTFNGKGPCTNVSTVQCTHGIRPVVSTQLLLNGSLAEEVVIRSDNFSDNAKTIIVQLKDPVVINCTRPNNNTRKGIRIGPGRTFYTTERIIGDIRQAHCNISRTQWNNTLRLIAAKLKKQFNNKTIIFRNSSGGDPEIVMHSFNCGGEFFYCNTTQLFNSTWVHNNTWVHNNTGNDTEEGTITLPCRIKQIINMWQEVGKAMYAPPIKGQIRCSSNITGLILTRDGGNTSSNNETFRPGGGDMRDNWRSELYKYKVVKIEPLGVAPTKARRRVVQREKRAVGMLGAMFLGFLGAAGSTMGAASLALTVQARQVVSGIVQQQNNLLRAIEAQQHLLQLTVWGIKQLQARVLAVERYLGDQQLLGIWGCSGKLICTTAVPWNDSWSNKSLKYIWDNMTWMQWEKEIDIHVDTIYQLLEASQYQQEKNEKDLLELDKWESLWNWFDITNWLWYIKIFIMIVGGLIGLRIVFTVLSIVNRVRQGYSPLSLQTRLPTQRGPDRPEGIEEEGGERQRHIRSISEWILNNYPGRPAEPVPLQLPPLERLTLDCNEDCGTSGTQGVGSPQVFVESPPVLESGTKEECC
In the case of `Cc1sc(-n2c(C)cc(/C=C3\SC(=S)NC3=O)c2C)c(C#N)c1C`, the IC50 is reported as 24.1 µM (active). In the case of `O=C(O)C1Nc2ccc(Br)cc2C2C=CCC12` (centres undefined), the IC50 is reported as 10.9 µM (active). For `CCc1ccc(S(=O)(=O)/N=C2\C=C(NS(=O)(=O)c3ccccc3)C(=O)c3ccccc32)cc1`, the IC50 was 19.7 µM (active). With `O=C(O)c1[nH]c2ccccc2c1C(c1ccccc1)c1c(C(=O)O)[nH]c2ccccc12` the IC50 was 14 µM (active).
